Tested on: non-canonical WNT signaling in monocytes/macrophages
Test: PBMC-derived macrophages stimulated with supernatant of hypoxic AdWIF1-transfected cardiomyocytes
Format: cell-based, rat
Procedure: Neonatal rat ventricular cardiomyocytes (NRVCMs) were isolated as previously described (Hagenmueller et al. 2010). After plating, NRVCMs were allowed to adhere overnight. Cardiomyocytes were cultured under hypoxic conditions (1.5% O2) for either four or 24 hours. Supernatant, RNA and proteins were harvested.
Premade WIF1 and control adenovirus was purchased from Applied Biological Materials Inc. (Richmond, Canada). Adenovirus was amplified according to the manufacturer's instructions. Cardiomyocytes were transfected according to manufacturer's instructions. WIF1 overexpression was allowed to establish for 48 hours. Transfected cardiomyocytes were than cultured under hypoxic conditions as described above (see 1.9).
Adult rats were euthanized using a high dose of pentobarbital. Blood was collected by cardiac puncture into EDTA-coated sample tubes. Mononuclear cells were separated using Histopaque 1083 (Sigma-Aldrich Chemie GmbH, Taufkirchen, Germany) according to manufacturer's instructions. Monocytes/macrophages were allowed to adhere to the cell culture dish for two hours. Non-adherent mononuclear cells were discarded. Macrophages were stimulated with supernatant of hypoxic cardiomyocytes for four hours.
Protein lysates of primary cells and heart tissue were prepared using RIPA buffer supplemented with phosphatase/proteinase inhibitors (Cell Signaling Technology, Danvers, USA). Protein concentrations were measured using BCA assay (ThermoFisher Scientific, Waltham, USA). Equal amounts of protein were separated onto four 15% SDS-PAGE gradient gels (Bio-Rad Laboratories GmbH, München, Germany) and transferred to PVDF membranes (Merck Chemicals GmbH, Darmstadt, Germany). The following primary and HPR-conjugated secondary antibodies were used: monoclonal mouse anti-Active-β-Catenin (anti ABC), clone 8E7 (Merck Millipore, Darmstadt, Germany); monoclonal rabbit anti-JNK1+JNK2+JNK3 [EP1597Y] […] Protein expression was analyzed using ImageJ. Protein bands were normalized to GAPDH (respectively actin) loading control for quantification. […]

[1] = supernatant of WIF1-overexpressing cardiomyocytes vs control cells, FIG. 6B

## WIF1: cardiomyocyte-derived WIF1 in supernatant of hypoxic cardiomyocytes transfected with WIF1 adenovirus (AdWIF1)
[1]
  transcription level of pro-inflammatory cytokine IL1β: reduced
  transcription level of pro-inflammatory cytokine IL6: reduced
Supernatant of hypoxic WIF1-overexpressing cardiomyocytes vs control supernatant, FIG. 6A
  JNK phosphorylation in isolated monocytes/macrophages: significantly reduced

Source: patent publication US20190275035A1, “WNT ANTAGONISTS AND THEIR USE IN METHODS FOR TREATING MYOCARDIAL INFARCTION” (RUPRECHT-KARLS-UNIVERSITÄT HEIDELBERG, priority 2016, published 2019)
